# PubChem BioAssay AID651971 (The Scripps Research Institute Molecular Screening Center, 2013)
# Active and inactive are the calls of the source. No rule for the calls is given here.
# Biological target: methionyl-tRNA synthetase (Trypanosoma brucei brucei) (UniProt Q38C91)
# Experiment: inhibition of trypanosome methionyl-tRNA synthetase – biochemical, luminescence, dose response (AID 651971)
# Settings: recombinant T. brucei MetRS, luminescence (ATP consumption)
# methionyl-tRNA synthetase (Trypanosoma brucei brucei), sequence (Q38C91 1-773): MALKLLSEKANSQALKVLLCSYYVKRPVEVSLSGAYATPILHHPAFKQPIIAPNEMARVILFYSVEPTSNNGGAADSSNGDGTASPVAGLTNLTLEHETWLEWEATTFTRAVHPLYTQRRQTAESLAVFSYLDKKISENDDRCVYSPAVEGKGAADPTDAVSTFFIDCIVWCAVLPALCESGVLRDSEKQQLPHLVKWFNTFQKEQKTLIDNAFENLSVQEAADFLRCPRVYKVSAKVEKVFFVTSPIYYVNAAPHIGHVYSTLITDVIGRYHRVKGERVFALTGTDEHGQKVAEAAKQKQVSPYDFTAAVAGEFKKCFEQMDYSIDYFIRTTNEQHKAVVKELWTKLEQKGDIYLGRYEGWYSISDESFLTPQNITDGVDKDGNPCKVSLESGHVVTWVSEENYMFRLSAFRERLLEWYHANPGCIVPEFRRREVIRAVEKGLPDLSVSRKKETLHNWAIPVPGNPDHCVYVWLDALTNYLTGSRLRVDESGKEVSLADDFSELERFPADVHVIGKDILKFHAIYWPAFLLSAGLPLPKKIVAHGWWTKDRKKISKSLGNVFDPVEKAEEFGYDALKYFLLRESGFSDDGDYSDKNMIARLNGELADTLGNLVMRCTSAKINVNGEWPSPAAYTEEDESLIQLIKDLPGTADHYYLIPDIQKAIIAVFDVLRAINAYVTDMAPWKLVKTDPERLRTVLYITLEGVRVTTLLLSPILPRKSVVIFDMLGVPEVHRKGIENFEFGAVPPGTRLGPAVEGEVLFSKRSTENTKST
structure (smiles),measurement,value
Cc1ccc(C(=O)Nn2c(O)c(C=C3N=c4ccccc4=N3)sc2=S)cc1,IC50,> 119 µM (inactive)
